Assay results published in ChEMBL document CHEMBL4715866, “A Chemical Probe for Dark Kinase STK17B Derives Its Potency and High Selectivity through a Unique P-Loop Conformation” (J Med Chem, 2020).
In brackets after ≈: the same amount, converted by molar mass.

Experiments:
[1] = target: T1, Serine/threonine-protein kinase 17B (Homo sapiens, UniProt O94768)
T1 sequence (O94768 whole entry): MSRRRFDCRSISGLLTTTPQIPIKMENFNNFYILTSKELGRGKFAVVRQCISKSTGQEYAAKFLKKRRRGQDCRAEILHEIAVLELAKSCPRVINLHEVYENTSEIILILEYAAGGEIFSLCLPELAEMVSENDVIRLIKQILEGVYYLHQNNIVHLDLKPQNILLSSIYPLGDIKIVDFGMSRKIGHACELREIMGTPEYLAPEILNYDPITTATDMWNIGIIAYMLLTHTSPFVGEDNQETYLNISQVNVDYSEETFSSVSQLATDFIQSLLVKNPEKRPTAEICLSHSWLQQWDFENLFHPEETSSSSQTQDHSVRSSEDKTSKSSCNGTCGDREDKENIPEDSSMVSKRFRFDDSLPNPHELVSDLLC

[2] = target: T1, Serine/threonine-protein kinase 17B; assay: Inhibition of N-terminal His-tagged STK17B kinase domain (25 to 329 residues) (unknown origin) expressed in Escherichia coli incubated for 90 mins by Kinase seeker split luciferase assay
[3] = Stability in mouse liver microsomes assessed as compound remaining at 0.1 mM in presence of NADPH regeneration system after 30 mins by LC-MS/MS analysis; type: ADME, Microsome; details: read-out: Stabilty
[4] = Kinetic solubility in pH 7.4 PBS; type: physicochemical; details: read-out: Kinetic_solubility
[5] = target: T2, Serine/threonine-protein kinase 17A (Homo sapiens, UniProt Q9UEE5); assay: Binding affinity to STK17A (unknown origin) by KINOMEscan scanMAX assay
T2 sequence (Q9UEE5 whole entry): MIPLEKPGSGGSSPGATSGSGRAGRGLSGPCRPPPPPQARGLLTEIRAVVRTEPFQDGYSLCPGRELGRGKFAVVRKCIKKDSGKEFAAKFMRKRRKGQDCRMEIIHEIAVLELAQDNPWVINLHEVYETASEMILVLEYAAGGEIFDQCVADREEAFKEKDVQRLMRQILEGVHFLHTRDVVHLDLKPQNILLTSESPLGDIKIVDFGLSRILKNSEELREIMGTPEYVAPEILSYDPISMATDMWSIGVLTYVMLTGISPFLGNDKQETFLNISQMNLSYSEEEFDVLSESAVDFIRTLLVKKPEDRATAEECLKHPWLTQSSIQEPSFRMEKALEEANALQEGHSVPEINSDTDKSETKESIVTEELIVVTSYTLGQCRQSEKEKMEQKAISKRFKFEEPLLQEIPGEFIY

[6] = target: T1, Serine/threonine-protein kinase 17B; assay: Binding affinity to N-terminal His-tagged STK17B kinase domain (25 to 329 residues) (unknown origin) expressed in Escherichia coli by KINOMEscan scanMAX assay
[7] = target: T2, Serine/threonine-protein kinase 17A; assay: Inhibition of STK17A (unknown origin) incubated for 90 mins by Kinase seeker split luciferase assay
[8] = target: T3, Homeodomain-interacting protein kinase 4 (Homo sapiens, UniProt Q8NE63); assay: Binding affinity to human HIPK4 by KINOMEscan scanMAX assay
T3 sequence (Q8NE63 whole entry): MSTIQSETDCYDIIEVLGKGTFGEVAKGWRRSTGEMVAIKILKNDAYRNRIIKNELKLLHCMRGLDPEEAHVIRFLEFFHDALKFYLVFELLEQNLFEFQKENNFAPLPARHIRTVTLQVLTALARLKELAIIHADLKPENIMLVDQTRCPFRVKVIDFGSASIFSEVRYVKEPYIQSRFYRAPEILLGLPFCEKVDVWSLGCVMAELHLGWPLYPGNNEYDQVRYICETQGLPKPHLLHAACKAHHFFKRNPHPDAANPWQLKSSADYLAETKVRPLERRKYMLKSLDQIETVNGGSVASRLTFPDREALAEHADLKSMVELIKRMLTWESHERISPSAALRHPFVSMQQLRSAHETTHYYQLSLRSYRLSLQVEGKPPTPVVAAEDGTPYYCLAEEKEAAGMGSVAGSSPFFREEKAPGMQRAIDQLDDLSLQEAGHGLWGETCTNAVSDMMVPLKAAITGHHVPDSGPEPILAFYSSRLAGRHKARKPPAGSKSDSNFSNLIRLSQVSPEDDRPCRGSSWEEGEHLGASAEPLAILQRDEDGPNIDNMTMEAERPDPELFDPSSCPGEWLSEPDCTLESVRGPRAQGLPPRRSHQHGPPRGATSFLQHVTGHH

SMILES | IC50 [1] [nM] | IC50 [2] [nM] | remaining at 0.5 h, 100 µM [3] [%] | solubility kinetic [4] [µg/mL] | further results
COc1ccc(-c2cc3c(SCC(=O)O)ncnc3s2)cc1 | > 10000 | – | – | – | –
C=Cc1ccc(-c2cc3ncnc(SCC(=O)O)c3s2)cc1 | 120 | 28 | 38 | 74 (≈ 225 µM) | –
COc1ccccc1-c1cc2c(SCC(=O)O)ncnc2s1 | > 10000 | 880 | – | – | –
O=C(O)COc1ncnc2cc(-c3ccc(Cl)cc3)sc12 | > 10000 | – | – | – | –
N#Cc1ccc(-c2cc3ncnc(SCC(=O)O)c3s2)cc1 | 3200 | 35 | – | – | –
C[S+]([O-])c1ccc(-c2cc3ncnc(SCC(=O)O)c3s2)cc1 (stereo not drawn) | > 10000 | 7 | – | – | –
O=C(O)CSc1ncnc2cc(-c3cccc(OC(F)(F)F)c3)sc12 | 500 | 280 | – | – | –
O=C(O)CSc1ncnc2cc(-c3ccc(Cl)c(Cl)c3)sc12 | 310 | 92 | – | – | –
CC(=O)Nc1ccc(-c2cc3ncnc(SCC(=O)O)c3s2)cc1 | > 10000 | 23 | – | – | –
CSc1ccc(-c2cc3ncnc(NCC(=O)O)c3s2)cc1 | > 10000 | – | – | – | –
O=C(O)CSc1ncnc2cc(-c3ccc(C4CC4)cc3)sc12 | 530 | 62 | 66 | 55 (≈ 161 µM) | –
COc1cccc(-c2cc3c(SCC(=O)O)ncnc3s2)c1 | > 10000 | – | – | – | –
COc1ccccc1-c1cc2ncnc(SCC(=O)O)c2s1 | 1700 | 110 | 24 | 69 (≈ 208 µM) | –
O=C(O)CSc1ncnc2cc(-c3ccc(N4CCOCC4)cc3)sc12 | 720 | 14 | 63 | 61 (≈ 157 µM) | –
CCOC(=O)COc1ncnc2cc(-c3ccc(Cl)cc3)sc12 | > 10000 | – | – | – | –
CC(=O)c1ccc(-c2cc3ncnc(SCC(=O)O)c3s2)cc1 | 1500 | 13 | – | – | –
O=C(O)CSc1ncnc2cc(-c3cccs3)sc12 | 650 | 63 | 47 | 56 (≈ 182 µM) | –
COc1ccc(-c2cc3ncnc(SCC(=O)O)c3s2)cc1F | 700 | 18 | 88 | 49 (≈ 140 µM) | –
O=C(O)CSc1ncnc2cc(-c3ccc(Cl)cc3)sc12 | 680 | 39 | – | – | –
CC(C)c1ccc(-c2cc3ncnc(SCC(=O)O)c3s2)cc1 | 550 | 59 | 35 | 23 (≈ 66.8 µM) | –

SMILES | IC50 [1] [nM] | IC50 [2] [nM] | remaining at 0.5 h, 100 µM [3] [%] | solubility kinetic [4] [µg/mL] | further results
O=C(O)CSc1ncnc2cc(-c3cccc(F)c3)sc12 | 980 | 49 | – | – | –
O=C(O)CSc1ncnc2cc(-c3ccc(F)c(F)c3)sc12 | 820 | 74 | 95 | 65 (≈ 192 µM) | –
CCc1ccc(-c2cc3ncnc(SCC(=O)O)c3s2)cc1 | 380 | 41 | – | – | –
O=C(O)CSc1ncnc2cc(-c3cccc(N4CCOCC4)c3)sc12 | 2900 | 83 | 73 | 54 (≈ 139 µM) | –
CSc1ccc(-c2cc3ncnc(SCC(N)=O)c3s2)cc1 | > 10000 | – | – | – | –
CSc1ccc(-c2cc3ncnc(SCC(=O)O)c3s2)cc1F | 530 | 27 | 18 | 52 (≈ 142 µM) | –
CSc1cccc(-c2cc3ncnc(SCC(=O)O)c3s2)c1 | 500 | 49 | – | – | –
CC(C)Sc1ccc(-c2cc3ncnc(SCC(=O)O)c3s2)cc1 | > 10000 | 49 | – | – | –
CC(=O)Nc1cccc(-c2cc3ncnc(SCC(=O)O)c3s2)c1 | > 10000 | 35 | – | – | –
CSc1ccc(-c2cc3ncnc(SCC(=O)O)c3s2)cc1 | 210 | 20 | 0 | 42 (≈ 121 µM) | Kd [5]: 230 nM
CSc1cccc(-c2cc3c(SCC(=O)O)ncnc3s2)c1 | > 10000 | – | – | – | –
CC(=O)c1ccc(-c2cc3ncnc(SCC(=O)O)c3s2)cn1 | > 10000 | 37 | – | – | –
CCOC(=O)c1ccc(-c2cc3ncnc(SCC(=O)O)c3s2)cc1 | 870 | 40 | 0 | 59 (≈ 158 µM) | –
O=C(O)CSc1ncnc2cc(-c3ccccc3F)sc12 | 1200 | 60 | 45 | 51 (≈ 159 µM) | –
O=C(O)CSc1ncnc2sc(-c3cc4ccccc4s3)cc12 | > 10000 | 4800 | – | – | Kd [5]: 9800 nM; Kd [6]: 910 nM; IC50 [7]: > 10000 nM; Kd [8]: 290 nM
O=C(O)CSc1ncnc2cc(-c3ccc(OCc4ccccc4)cc3)sc12 | > 10000 | 110 | – | – | –
O=C(O)CSc1ncnc2sc(-c3ccc(Cl)c(Cl)c3)cc12 | > 10000 | – | – | – | –
O=C(O)CSc1ncnc2cc(-c3ccc(C(F)(F)F)cc3)sc12 | 340 | 33 | 88 | 57 (≈ 154 µM) | –
CCOC(=O)CNc1ncnc2cc(-c3ccc(SC)cc3)sc12 | > 10000 | – | – | – | –
CSc1ccc(-c2cc3c(SCC(=O)O)ncnc3s2)cc1 | > 10000 | – | – | – | –
